Test results taken from patent US7691965B2, “Helical synthetic peptides that stimulate cellular cholesterol efflux” (The Regents of the University of California, priority 2002, dated 2010).
Where a SMILES comes first, the peptide text is derived from it.

Tests used:
ABCA1 = ABCA1 (Mus musculus, UniProt P41233); assay: Cellular cholesterol efflux from [3H]cholesterol-labeled J774 macrophages with and without cAMP analog; format: cell-based; set-up: endogenous in cells; host or cells: J774 macrophages treated with a cAMP analog (CPT-cAMP or 8-bromo-cAMP); details: lipid-free acceptor, J774 macrophages with vs without cAMP analog
From the text: Suitable cholesterol efflux assays are described in, e.g., Bielicki, J. K and Oda, M. N., Biochemistry, 41:2089-2096 (2002); Jia, Z. et al., Biochem. Biophys. Res. Common., 297:206-213 (2002). In some embodiments, a polypeptide known to mediate cholesterol efflux (e.g., helix 9/10 of Apo A-I) is used to screen for additional mediators of cholesterol efflux in a cell based assay. For example, cell lines in which cholesterol efflux can be enhanced using a cAMP analog that up-regulates ABCA1 protein expression (e.g., J774 macrophages) can conveniently be used to assess the ability of an Apo A-I, Apo A-II, Apo A-IV, Apo E, Apo C-I, Apo C-II, Apo C-III, or Serum Amyloid A peptide to mediate cholesterol efflux. The cells are incubated with labeled cholesterol (e.g., [^3H]cholesterol) under conditions appropriate for cholesterol uptake by the cells. cAMP or cAMP analogs (e.g., CPT-cAMP) is incubated with the cells for a suitable time before the initiation of cellular cholesterol efflux, i.e., prior to contacting the cells with helix 9/10 of Apo A-I or the test compound. Measurement of labeled cholesterol appearing in the medium is used to determine the cholesterol efflux mediating activity of the test compound.
Cellular Cholesterol Efflux Protocol—J774 macrophages were used to assess the cholesterol efflux properties of synthetic amphipathic α-helical peptides (Bielicki, J. K and Oda, M. N., Biochemistry, 41:2089-2096 (2002); Jia, Z. et al., Biochem. Biophys. Res. Common., 297:206-213 (2002)). This cell line was chosen because cholesterol efflux can be enhanced using a cAMP analog that up-regulates ABCA1 protein expression. The cells were seeded onto 24-well culture plates and labeled for 48 h with [^3H]cholesterol in RPMI 1640 supplemented with 1% fetal bovine serum. The cAMP analog CPT-cAMP was added (0.3 mM, final concentration) to the cells at least 12 h before the initiation of cellular cholesterol efflux. Synthetic peptides in lipid-free form were added to cells in serum-free RPMI. The lipid-free form of full-length recombinant apoA-I was used as a positive control to define apparent ABCA1-dependent cholesterol efflux in the presence and absence of cAMP stimulation. Efflux results were expressed as a percentage of the initial cellular [^3H] appearing in the medium as a function of time subtracting the background efflux obtained using serum-free medium alone.

[1] = Relative lipid binding affinity by surface balance technique (monolayer exclusion pressure); format: physicochemical; details: surface balance technique
From the text: Relative Lipid Binding Affinity, Hydrophobicity, and Amphiphilicity of Synthetic Peptides—In some experiments, the relative lipid binding affinity of unique peptides was quantified using a surface balance technique (Gillotte, K L. et al., J. Biol. Chem., 274:2021-2028 (1999)). For routine analyses, a turbid solution of dimyristoylphosphatidylcholine (DMPC) was used to assess the relative capacity of synthetic peptides to solubilize phospholipid as described (Palgunachari, M. N. et al., Arterioscler. Thromb. Vasc. Biol., 16:328-338 (1996); McLean, L. R. and Hagaman, K. A., Biochim. Biophys. Acta, 1167:289-295 (1993)). The DMPC was used at a final concentration of 0.08 mg/ml in 10 mM Tris-saline (pH 7.4). The final weight ratio of peptides relative to DMPC was 1:1. The absorbance (400 nm) of samples was monitored continuously over a period of 30 min at 25° C. Hydrophobicity of helical peptides was calculated using the consensus scale (Eisenberg D., Annu. Rev. Biochem., 53:593-623 (1984)). The hydrophobic moment (kcal/mol) of synthetic peptides, which is a measure of helix amphiphilicity, was calculated as described by Eisenberg et al. (Eisenberg, D. et al., Nature, 299:371-374 (1982)).

Chain of ABCA1 (P41233 whole entry): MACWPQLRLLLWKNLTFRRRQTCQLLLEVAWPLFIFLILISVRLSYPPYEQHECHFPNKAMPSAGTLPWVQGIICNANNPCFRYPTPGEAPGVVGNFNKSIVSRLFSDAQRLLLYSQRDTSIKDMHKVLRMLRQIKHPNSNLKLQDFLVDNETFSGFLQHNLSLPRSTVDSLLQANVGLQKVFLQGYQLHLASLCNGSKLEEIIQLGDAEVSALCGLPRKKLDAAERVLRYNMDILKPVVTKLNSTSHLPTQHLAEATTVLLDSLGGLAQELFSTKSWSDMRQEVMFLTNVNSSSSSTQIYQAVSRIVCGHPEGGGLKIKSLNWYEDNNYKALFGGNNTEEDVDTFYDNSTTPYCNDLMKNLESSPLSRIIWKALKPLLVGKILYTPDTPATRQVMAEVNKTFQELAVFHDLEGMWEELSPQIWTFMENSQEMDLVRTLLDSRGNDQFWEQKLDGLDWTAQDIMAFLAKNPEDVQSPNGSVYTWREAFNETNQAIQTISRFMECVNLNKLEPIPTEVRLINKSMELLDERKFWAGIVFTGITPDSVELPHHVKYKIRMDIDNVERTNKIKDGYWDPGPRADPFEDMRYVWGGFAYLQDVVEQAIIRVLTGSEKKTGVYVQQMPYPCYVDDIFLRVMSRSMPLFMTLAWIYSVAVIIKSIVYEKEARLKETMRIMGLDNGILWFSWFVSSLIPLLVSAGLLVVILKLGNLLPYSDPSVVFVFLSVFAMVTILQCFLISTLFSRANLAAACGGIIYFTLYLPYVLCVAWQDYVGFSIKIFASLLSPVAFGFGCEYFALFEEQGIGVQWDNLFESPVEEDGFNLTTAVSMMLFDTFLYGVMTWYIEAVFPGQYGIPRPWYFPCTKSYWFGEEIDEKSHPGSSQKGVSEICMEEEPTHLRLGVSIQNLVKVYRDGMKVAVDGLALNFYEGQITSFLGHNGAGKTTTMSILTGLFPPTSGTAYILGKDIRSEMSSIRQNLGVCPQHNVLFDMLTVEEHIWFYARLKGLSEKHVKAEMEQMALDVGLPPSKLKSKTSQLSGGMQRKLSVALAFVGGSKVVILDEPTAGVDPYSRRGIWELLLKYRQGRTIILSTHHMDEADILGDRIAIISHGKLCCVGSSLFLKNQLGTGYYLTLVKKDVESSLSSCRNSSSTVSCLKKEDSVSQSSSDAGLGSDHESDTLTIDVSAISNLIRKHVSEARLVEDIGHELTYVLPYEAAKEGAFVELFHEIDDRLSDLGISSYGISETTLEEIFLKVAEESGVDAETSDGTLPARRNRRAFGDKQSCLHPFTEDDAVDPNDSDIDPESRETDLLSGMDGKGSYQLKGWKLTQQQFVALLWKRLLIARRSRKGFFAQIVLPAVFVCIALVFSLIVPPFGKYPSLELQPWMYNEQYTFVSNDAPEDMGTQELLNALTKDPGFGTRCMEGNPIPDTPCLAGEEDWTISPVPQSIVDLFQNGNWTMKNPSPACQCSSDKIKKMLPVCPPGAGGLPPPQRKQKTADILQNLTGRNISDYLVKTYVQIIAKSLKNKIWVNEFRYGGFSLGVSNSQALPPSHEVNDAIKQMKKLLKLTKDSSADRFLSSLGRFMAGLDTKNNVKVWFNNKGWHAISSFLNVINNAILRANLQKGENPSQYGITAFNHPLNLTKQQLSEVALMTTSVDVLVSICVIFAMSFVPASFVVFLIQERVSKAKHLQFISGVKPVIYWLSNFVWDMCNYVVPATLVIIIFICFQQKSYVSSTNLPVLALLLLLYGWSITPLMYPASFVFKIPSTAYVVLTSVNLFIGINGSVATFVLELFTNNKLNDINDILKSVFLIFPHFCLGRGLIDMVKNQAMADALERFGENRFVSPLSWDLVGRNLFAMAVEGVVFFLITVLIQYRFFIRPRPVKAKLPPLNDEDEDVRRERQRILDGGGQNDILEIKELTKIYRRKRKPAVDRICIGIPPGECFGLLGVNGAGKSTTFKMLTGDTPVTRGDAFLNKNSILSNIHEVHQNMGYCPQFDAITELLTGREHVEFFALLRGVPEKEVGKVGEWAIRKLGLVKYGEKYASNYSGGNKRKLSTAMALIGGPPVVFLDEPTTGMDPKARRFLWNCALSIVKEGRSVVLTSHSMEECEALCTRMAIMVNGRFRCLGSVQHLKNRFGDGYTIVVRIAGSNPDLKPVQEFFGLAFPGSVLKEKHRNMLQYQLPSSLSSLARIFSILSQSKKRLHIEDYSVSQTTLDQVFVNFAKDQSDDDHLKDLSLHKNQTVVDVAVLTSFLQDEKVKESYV

ABCA1-dependent cholesterol efflux (result in words) (ABCA1; listed as C-terminal domain of apoE) | ABCA1-dependent cholesterol efflux (result in words) (ABCA1; listed as CT domain) | Molecule | ABCA1-dependent cholesterol efflux (result in words) (ABCA1) | Monolayer exclusion pressure [1]
– | – | CSCC[C@H](NC(=O)[C@H](CCC(=O)O)NC(=O)[C@H](CCC(=O)O)NC(=O)[C@H](CCC(N)=O)NC(=O)[C@H](Cc1c[nH]c2ccccc12)NC(=O)[C@H](CCCCN)NC(=O)[C@H](CCCCN)NC(=O)[C@H](CCC(N)=O)NC(=O)[C@H](Cc1ccccc1)NC(=O)[C@H](CC(=O)O)NC(=O)[C@H](CC(=O)O)NC(=O)[C@H](CC(C)C)NC(=O)[C@H](Cc1ccc(O)cc1)NC(=O)[C@@H]1CCCN1C(C)=O)C(=O)N[C@@H](CCC(=O)O)C(=O)N[C@@H](CC(C)C)C(=O)N[C@@H](Cc1ccc(O)cc1)C(=O)N[C@@H](CCCNC(=N)N)C(=O)N[C@@H](CCC(N)=O)C(=O)N[C@@H](CCCCN)C(=O)N[C@H](C(=O)N[C@@H](CCC(=O)O)C(=O)N1CCC[C@H]1C(=O)N[C@@H](C)C(=O)N[C@@H](CC(C)C)C(=O)N[C@@H](CCC(=O)O)C(=O)N[C@@H](CC(=O)O)C(=O)N[C@@H](CC(C)C)C(=O)N[C@@H](CCCNC(=N)N)C(=O)N[C@@H](CCC(N)=O)C(=O)NCC(=O)N[C@@H](CC(C)C)C(=O)N[C@@H](CC(C)C)C(N)=O)C(C)C [Helical peptide 4/9] (Ac-PYLDDFQKKWQEEMELYRQKVEPALEDLRQGLL-NH2) | failed to mediate ABCA1-dependent cholesterol efflux | –
– | – | CSCC[C@H](NC(=O)[C@H](CCC(=O)O)NC(=O)[C@H](CCC(N)=O)NC(=O)[C@H](CCCNC(=N)N)NC(=O)[C@H](CC(C)C)NC(=O)CNC(=O)[C@H](CCC(=O)O)NC(=O)[C@@H](NC(=O)[C@H](CCC(=O)O)NC(=O)[C@H](CCCCN)NC(=O)[C@H](CCC(=O)O)NC(=O)[C@H](CC(C)C)NC(=O)[C@H](CC(N)=O)NC(=O)[C@H](CC(=O)O)NC(=O)[C@H](Cc1c[nH]c2ccccc12)NC(=O)[C@H](Cc1ccccc1)NC(=O)[C@H](CCC(=O)O)NC(=O)[C@H](CCC(N)=O)NC(=O)[C@@H](NC(=O)[C@@H](NC(=O)[C@@H]1CCCN1C(C)=O)C(C)C)[C@@H](C)O)[C@@H](C)O)C(=O)N[C@@H](CO)C(N)=O [Helical peptide 2] (Ac-PVTQEFWDNLEKETEGLRQEMS-NH2) | – | 17 dynes/cm
– | – | CSCC[C@H](NC(=O)[C@H](CCC(=O)O)NC(=O)[C@H](CCC(N)=O)NC(=O)[C@H](CCCNC(=N)N)NC(=O)[C@H](CC(C)C)NC(=O)CNC(=O)[C@H](CCC(=O)O)NC(=O)[C@@H](NC(=O)[C@H](CCC(=O)O)NC(=O)[C@H](CCCCN)NC(=O)[C@H](CCC(=O)O)NC(=O)[C@H](CC(C)C)NC(=O)[C@H](CC(N)=O)NC(=O)[C@H](CC(=O)O)NC(=O)[C@H](Cc1c[nH]c2ccccc12)NC(=O)[C@H](Cc1ccccc1)NC(=O)[C@H](CCC(=O)O)NC(=O)[C@H](CCC(N)=O)NC(=O)[C@@H](NC(=O)[C@@H](NC(=O)[C@@H]1CCCN1C(C)=O)C(C)C)[C@@H](C)O)[C@@H](C)O)C(=O)N[C@@H](CO)C(=O)N1CCC[C@H]1C(=O)N[C@@H](C)C(=O)N[C@@H](CC(C)C)C(=O)N[C@@H](CCC(=O)O)C(=O)N[C@@H](CC(=O)O)C(=O)N[C@@H](CC(C)C)C(=O)N[C@@H](CCCNC(=N)N)C(=O)N[C@@H](CCC(N)=O)C(=O)NCC(=O)N[C@@H](CC(C)C)C(=O)N[C@@H](CC(C)C)C(N)=O [Helical peptide 2/9] (Ac-PVTQEFWDNLEKETEGLRQEMSPALEDLRQGLL-NH2) | failed to stimulate ABCA1-dependent cholesterol efflux | 19 dynes/cm
potent stimulator of cholesterol efflux | more effective than full-length apoE3 | ARMEEMGSRTRDRLDEVKEQVAEVRAKLEEQAQQIRLQAEAFQARLKSWFEPLVEDMQRQWAGLVEKVQAAVGTSAAPVPSDNH (protein, apolipoprotein Apo E, C-terminal domain (aa216-299), C-terminal domain, amino acid residues 216-299 of Apo E) ARMEEMGSRTRDRLDEVKEQVAEVRAKLEEQAQQIRLQAEAFQARLKSWFEPLVEDMQRQWAGLVEKVQAAVGTSAAPVPSDNH | – | –
